The values that follow come from patent US12076320B2, “Diarylpyrazole compound, composition comprising same, and use thereof” (Shenzhen TargetRx, Inc., priority 2018, dated 2024).

Data set [1] is described as follows: Metabolic stability evaluation in rat liver microsomes. It counts as in vitro ADME, SD rat. Conditions: rat liver microsomes 0.5 mg/mL, compound 1 μM; for microsomal CLint at 1 μM / half-life at 1 μM: SD, pH 7.4; for microsomal CLint at 1 μM: read-out: RLM CL; for half-life at 1 μM: read-out: RLM T1/2. The protocol: (§1) Microsome assay: human liver microsomes (HLM): 0.5 mg/mL, Xenotech; rat liver microsomes (RLM): 0.5 mg/mL, Xenotech; coenzyme (NADPH/NADH): 1 mM, Sigma Life Science; magnesium chloride: 5 mM, 100 mM phosphate buffer (pH 7.4).
(§2) Preparation of stock solutions: Powders of the example compounds and the control compound were accurately weighed and dissolved in DMSO to 5 mM respectively.
(§3) Preparation of phosphate buffer (100 mM, pH 7.4): A pre-prepared 0.5 M potassium dihydrogen phosphate solution (150 mL) was mixed with a pre-prepared 0.5 M dibasic potassium phosphate solution (700 mL). The pH of the mixture was adjusted to 7.4 with a 0.5 M dibasic potassium phosphate solution. The mixture was diluted 5-fold with ultrapure water before use, and magnesium chloride was added to obtain a phosphate buffer (100 mM) containing 100 mM potassium phosphate, 3.3 mM magnesium chloride, pH 7.4.
(§4) A NADPH regeneration system solution (containing 6.5 mM NADP, 16.5 mM G-6-P, 3 U/mL G-6-P D, 3.3 mM magnesium chloride) was prepared and placed on wet ice before use.
(§5) Preparation of stop solution: an acetonitrile solution containing 50 ng/mL propranolol hydrochloride and 200 ng/mL tolbutamide (internal standard). 25057.5 μL of phosphate buffer (pH 7.4) was added into a 50 mL centrifuge tube, to which 812.5 μL of human liver microsomes were then added and mixed well to obtain a liver microsome dilution with a protein concentration of 0.625 mg/mL. 25057.5 μL of phosphate buffer (pH 7.4) was added into a 50 mL centrifuge tube, to which 812.5 μL of SD rat liver microsomes were then added and mixed well to obtain a liver microsome dilution with a protein concentration of 0.625 mg/mL.
(§6) Incubation of the samples: The stock solutions of the respective compounds were respectively diluted to 0.25 mM with an aqueous solution containing 70% acetonitrile, and used as a working solution, ready for use. 398 μL of the dilutions of human liver microsomes or rat liver microsomes were added to 96-well incubation plates (N=2), respectively, and 2 μL of 0.25 mM working solution was added respectively and nixed.
(§7) Metabolic stability assay: 300 μL of pre-chilled stop solution was added to each well of 96-well deep well plates and placed on ice as stop plates. The 96-well incubation plates and NADPH regeneration system were placed in a 37° C. water bath, shaken at 100 rpm and pre-incubated for 5 min. 80 μL of incubation solution was taken out from each well of the incubation plates, added to the stop plates, mixed well, and replenished with 20 μL of NADPH regeneration system solution. The resulting mixture was used as a 0-min sample. 80 μL of NADPH regeneration system solution was added to each well of the incubation plates to start the reaction and start counting. […] At 10, 30, and 90 minutes of the reaction, respectively, 100 μL of the reaction solutions were taken out, added to the stop plates, and vortexed for 3 minutes to stop the reaction. The stop plates were centrifuged at 5000×g at 4° C. for 10 min. 100 μL of the supernatant was taken out, added to a 96-well plate pre-added with 100 μL of distilled water, mixed well, and analyzed by LC-MS/MS.
(§8) Data analysis: The peak areas of the corresponding compounds and internal standard were detected by LC-MS/MS system, and the ratio of the peak area of the compounds to the internal standard was calculated.
In general terms: Liver microsomes are vesicles of endoplasmic reticulum, rich in cytochrome P450 enzymes.

A short description of data set [2]: Metabolic stability evaluation in human liver microsomes. It counts as in vitro ADME. The note with it: human liver microsomes 0.5 mg/mL, compound 1 μM; for microsomal CLint at 1 μM / half-life at 1 μM: pH 7.4; for microsomal CLint at 1 μM: read-out: HLM CL; for half-life at 1 μM: read-out: HLM T1/2. On the procedure:
as §1, §2, §3, §4, §5, §6, §7, §8

The conditions of data set [3]: at weakly acidic and neutral pH; cited from earlier work.
Data set [4] relates to HT-29 colorectal cancer cell line with BRAF V600E mutation. As to the kind of experiment: Cytotoxicity assay (CTG, 72 hours). Format: cell-based. The note with it: Homo sapiens, HT-29 cells.
Procedure: The cell viability was detected by trypan blue exclusion method to ensure that the cell viability was greater than 90%. The cells were inoculated in a 96-well plate and cultured overnight under the condition of 37° C. and 5% CO2. The 10-fold drug solutions were prepared by a 3.16-fold serial dilution starting from a maximum concentration of 1 μM, resulting in 9 concentrations. 10 μL of the drug solutions were added to each well of the 96-well plate in triplicate, and the incubation was further continued for 72 hours. An equal volume of CTG solution was added to each well, and the cell plate w as shaked on an orbital shaker for 5 minutes to lyse the cells. The cell plate was placed at room temperature for 20 minutes to stabilize the luminescence signal, and the luminescence values were then read on a SpectraMax multi-label microplate reader (MD, 2104-0010A). The data were analyzed with GraphPad Prism 5.0 software, and fitted using the non-linear S-curve regression to obtain a dose-effect curve, from which IC50 values were calculated accordingly.

Regarding `[2H]C([2H])([2H])[C@H](NC(=O)OC)C([2H])([2H])Nc1nccc(-c2cn(C(C)C)nc2-c2cc(Cl)cc(NS(C)(=O)=O)c2F)n1` (single isomer, unassigned) [L-4-S], in data set [1], the microsomal CLint at 1 μM is 16.7 µL/min/mg and the half-life at 1 μM is 1.38 h. Besides, in data set [2], the microsomal CLint at 1 μM turned out to be 12.5 µL/min/mg and the half-life at 1 μM is 1.85 h.

Consider `[2H]C([2H])([2H])[C@H](NC(=O)OC)C([2H])([2H])Nc1nccc(-c2cn(C([2H])(C([2H])([2H])[2H])C([2H])([2H])[2H])nc2-c2cc(Cl)cc(NS(C)(=O)=O)c2F)n1` [L-5-S, (S)-methyl (1-((4-(3-(5-chloro-2-fluoro-3-(methylsulfonamido)phenyl)-1-(propan-2-yl-d7)-3-1H-pyrazol-4-yl)pyrimidin-2-yl)amino)propan-2-yl-1,1,3,3,3-d5)carbamate], for which, in data set [1], the “RLM CL” value was 10.22 µL/min/mg and the “RLM T1/2” value was 2.2595 h. Moreover, in data set [2], the “HLM CL” value amounted to 5.69 µL/min/mg and the “HLM T1/2” value amounted to 4.0628 h.

`[2H]C([2H])([2H])OC(=O)N[C@@H](C)CNc1nccc(-c2cn(C([2H])(C([2H])([2H])[2H])C([2H])([2H])[2H])nc2-c2cc(Cl)cc(NS(C)(=O)=O)c2F)n1` (single isomer, unassigned) [L-3]: in data set [1], the microsomal CLint at 1 μM was 11.3 µL/min/mg and the half-life at 1 μM was determined as 2.04 h. Also, in data set [2], the microsomal CLint at 1 μM is 4.87 µL/min/mg and the half-life at 1 μM turned out to be 4.75 h.

For `[2H]C([2H])([2H])OC(=O)N[C@@H](C)CNc1nccc(-c2cn(C(C)C)nc2-c2cc(Cl)cc(NS(C)(=O)=O)c2F)n1` (single isomer, unassigned) [L-2], the microsomal CLint at 1 μM stood at 16.8 µL/min/mg in data set [1] and 9.07 µL/min/mg in data set [2]. Further, the results for the half-life at 1 μM in data set [1] and in data set [2] were 1.38 h and 2.55 h, respectively.

`[2H]C([2H])([2H])C([2H])(n1cc(-c2ccnc(NC[C@H](C)NC(=O)OC)n2)c(-c2cc(Cl)cc(NS(C)(=O)=O)c2F)n1)C([2H])([2H])[2H]` (single isomer, unassigned) [L-1]: in data set [1], the microsomal CLint at 1 μM turned out to be 11.8 µL/min/mg and the half-life at 1 μM was 1.95 h. Further, in data set [2], the microsomal CLint at 1 μM was 9.47 µL/min/mg and the half-life at 1 μM came out at 2.44 h.

Take `COC(=O)N[C@@H](C)CNc1nccc(-c2cn(C(C)C)nc2-c2cc(Cl)cc(NS(C)(=O)=O)c2F)n1` [Encorafenib, (S)-methyl (1-((4-(3-(5-chloro-2-fluoro-3-(methylsulfonamido)phenyl)-1-isopropyl-1H-pyrazol-4-yl)pyrimidin-2-yl)amino)propan-2-yl)carbamate, reference compound]: the water-solubility entry in data set [3] was “poor”. In data set [4], half-maximal inhibition (IC50) was put at 8.96 nM. Further, in data set [1], the microsomal CLint at 1 μM was 17.4 µL/min/mg and the half-life at 1 μM turned out to be 1.33 h. Besides, in data set [2], the microsomal CLint at 1 μM was determined as 17.3 µL/min/mg and the half-life at 1 μM worked out at 1.33 h.

Broadly, the IC50 is the concentration needed to halve the response being measured.
